{"source": "ChEMBL document CHEMBL4382200", "about": "“Discovery of Novel 7-Aryl 7-Deazapurine 3'-Deoxy-ribofuranosyl Nucleosides with Potent Activity against Trypanosoma cruzi” (J Med Chem, 2018)", "system": "Trypanosoma cruzi", "test": "Antiparasitic activity against Trypanosoma cruzi Tulahuen intracellular amastigotes by beta-galactosidase reporter gene assay", "assay_type": "functional, organism-based"}
{"smiles": "CN(C)c1ncnc2c1ncn2[C@@H]1O[C@H](CO)[C@@H](N)[C@H]1O", "note": "[PUROMYCIN AMINONUCLEOSIDE]", "values": [{"measurement": "EC50", "value": 1000, "unit": "nM"}]}
